Here are results for 1 compound from patent publication US20230293530A1, “AGENTS FOR SENSITIZING SOLID TUMORS TO TREATMENT” (Yeda Research and Development Co. Ltd., priority 2020, published 2023).

The subject of this experiment is MC38 cells. The experiment is described as follows: Nucleotide levels by LC-MS in MC38 cells with or without mizoribine. The note with it: 300 µM mizoribine, 24 h. The experiment is classed as cell-based, mouse. The protocol: A) Purine/pyrimidine ratio is increased upon nutrient deprivation in […] colon cancer cells. MC38 cells were grown in either regular medium or in medium without glucose for 24 h. Nucleotide levels were measured by LC-MS. Purine/pyrimidine ratio was calculated by dividing (AMP+GMP) AUC by (UMP+CMP) AUC. B) 4T1 cells with and without shASS1 were grown in glucose free medium either supplemented or not with 10 mM L-Name for 48 hrs. Nucleotide levels were measured by LC-MS. Purine/pyrimidine ratio was calculated by dividing the sum levels of (AMP+GMP) by the sum levels of (UMP+CMP+TMP). […] MC38 cells were grown either with or without 300 µM mizoribine for 24 h. Nucleotide levels were measured by LC-MS. […] Cell viability was measured by crystal violet staining. […]
LC-MS analysis: The LC-MS/MS instrument consisting of an Acquity I-class UPLC system (Waters) and Xevo TQ-S triple quadrupole mass spectrometer (Waters), equipped with an electrospray ion source, and operated in positive ion mode was used for analysis of nucleoside monophosphates. […] Nucleotide concentration was calculated using a standard curve of the relevant nucleotide concentration in each sample. Standard curves included increasing concentration of all measured nucleotides ranging from 0-10 ug/ml that were positioned at the beginning and at the end of each run. […]

`NC(=O)c1ncn([C@@H]2O[C@H](CO)[C@@H](O)[C@H]2O)c1O` [Mizoribine, mizoribine]: the “purine/pyrimidine ratio (AMP+GMP) AUC/(UMP+CMP) AUC” value was “decreased purine/pyrimidine ratio”.
